Measurements from PubChem BioAssay AID330 (DTP/NCI, 2004).
Where “and” joins values, the source holds several entries; their conditions need not be identical. Equal entries are not always repeated. Inconclusive results and toxic doses are left out. The calls were made as follows: active = survival T/C of 150% or more; inactive = T/C below 125% in these data.

System: P388 leukemia ip, CD2F1 mice, survival T/C
Assay: NCI In Vivo Anticancer Drug Screen. Data for tumor model P388 Leukemia (intraperitoneal) in CD2F1 (CDF1) mice
Settings: endpoint: median survival time, higher = longer survival
Outline: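 Mice carrying the transplanted tumor received test compound or vehicle. Survival was recorded in each group, and the value is the treated-group measurement divided by that of the vehicle-treated control group.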

[1] = dose: 2.5 mg/kg/injection, schedule: Q01DX009 (ip), vehicle: saline with Tween-80
[2] = dose: 5.0 mg/kg/injection, schedule: Q01DX009 (ip), vehicle: saline with Tween-80
[3] = dose: 100.0 mg/kg/injection, schedule: Q04DX003 (ip), vehicle: saline with Tween-80
[4] = dose: 200.0 mg/kg/injection, schedule: Q04DX003 (ip), vehicle: saline with Tween-80
[5] = dose: 50.0 mg/kg/injection, schedule: Q01DX009 (ip), vehicle: saline with Tween-80
[6] = dose: 100.0 mg/kg/injection, schedule: Q01DX009 (ip), vehicle: saline with Tween-80
[7] = dose: 200.0 mg/kg/injection, schedule: Q01DX009 (ip), vehicle: saline with Tween-80
[8] = dose: 50.0 mg/kg/injection, schedule: Q01DX005 (ip), vehicle: Klucel (hydroxypropylcellulose) (HPC)
[9] = dose: 100.0 mg/kg/injection, schedule: Q01DX005 (ip), vehicle: Klucel (hydroxypropylcellulose) (HPC)
[10] = dose: 200.0 mg/kg/injection, schedule: Q01DX005 (ip), vehicle: Klucel (hydroxypropylcellulose) (HPC)
[11] = dose: 50.0 mg/kg/injection, schedule: Q01DX009 (ip), vehicle: saline
[12] = dose: 100.0 mg/kg/injection, schedule: Q01DX009 (ip), vehicle: saline
[13] = dose: 200.0 mg/kg/injection, schedule: Q01DX009 (ip), vehicle: saline
[14] = dose: 25.0 mg/kg/injection, schedule: Q01DX009 (ip), vehicle: saline with Tween-80
[15] = dose: 50.0 mg/kg/injection, schedule: Q01DX009 (ip), vehicle: Klucel (hydroxypropylcellulose) (HPC)
[16] = dose: 100.0 mg/kg/injection, schedule: Q01DX009 (ip), vehicle: Klucel (hydroxypropylcellulose) (HPC)
[17] = dose: 200.0 mg/kg/injection, schedule: Q01DX009 (ip), vehicle: Klucel (hydroxypropylcellulose) (HPC)

Measured: T/C

NCC1CCCCO1 (stereo not drawn)
inactive: dose: 50.0 mg/kg/injection, schedule: Q01DX005 (ip), vehicle: saline 98 % of control | dose: 100.0 mg/kg/injection, schedule: Q01DX005 (ip), vehicle: saline 99 % of control | dose: 200.0 mg/kg/injection, schedule: Q01DX005 (ip), vehicle: saline 91 % of control

O=c1cccc2c1c1cc[nH]c3ccc(=O)n2c31
inactive: dose: 1.25 mg/kg/injection, schedule: Q01DX009 (ip), vehicle: saline with Tween-80 98 % of control | [1] 107 % of control | [2] 102 % of control

CC(=O)Nc1ccc(NC(C)=O)c2c1C(=O)c1ccccc1C2=O
inactive: [3] 100 % of control | [4] 100 % of control | dose: 400.0 mg/kg/injection, schedule: Q04DX003 (ip), vehicle: saline with Tween-80 100 % of control

N#CS.[Cr+3].[NH-]CC[NH-].[NH-]CC[NH-].[NH-]CC[NH-]
inactive: [5] 104 % of control | [6] 95 % of control | [3] 100 % of control | [4] 104 % of control

CC(C)(C#N)C#N
inactive: dose: 25.0 mg/kg/injection, schedule: Q04DX003 (ip), vehicle: saline with Tween-80 100 % of control | dose: 50.0 mg/kg/injection, schedule: Q04DX003 (ip), vehicle: saline with Tween-80 100 % of control

S=C(Nc1ccccc1)Nc1nccs1
inactive: [5] 108 % of control | [6] 107 % of control | [7] 117 % of control

COc1c(NC(C)=O)c2c(c([N+](=O)[O-])c1OC)C(=O)OC2
inactive: [8] 106 % of control | [9] 104 % of control | [10] 110 % of control

CCOC(=O)Nc1cc(Cl)c2nnn(C(=O)OCC)c2n1
inactive: dose: 6.25 mg/kg/injection, schedule: Q01DX009 (ip), vehicle: other 105 % of control | dose: 11.0 mg/kg/injection, schedule: Q01DX009 (ip), vehicle: other 103 % of control | dose: 12.5 mg/kg/injection, schedule: Q01DX009 (ip), vehicle: other 115 % of control | dose: 16.5 mg/kg/injection, schedule: Q01DX009 (ip), vehicle: other 106 % of control | dose: 25.0 mg/kg/injection, schedule: Q01DX009 (ip), vehicle: other 106 % of control | dose: 37.5 mg/kg/injection, schedule: Q01DX009 (ip), vehicle: other 112 % of control | dose: 50.0 mg/kg/injection, schedule: Q01DX009 (ip), vehicle: other 122 % of control | dose: 100.0 mg/kg/injection, schedule: Q01DX009 (ip), vehicle: other 115 % of control

COCc1c(-c2ccccc2)nn(O)c1-c1ccccc1
inactive: dose: 50.0 mg/kg/injection, schedule: Q01DX001 (ip), vehicle: saline with Tween-80 103 % of control | dose: 100.0 mg/kg/injection, schedule: Q01DX001 (ip), vehicle: saline with Tween-80 96 % of control | dose: 200.0 mg/kg/injection, schedule: Q01DX001 (ip), vehicle: saline with Tween-80 87 % of control

CC1OC(O[C@@H]2C=C3CC[C@@H]4[C@H](CC[C@]5(C)[C@@H](c6ccc(=O)oc6)CC[C@]45O)[C@@]3(C)CC2)C(O)C(O)C1O (stereo partly drawn)
inactive: dose: 1.25 mg/kg/injection, schedule: Q01DX010 (sc), vehicle: steriod suspending solution 110 % of control | dose: 2.5 mg/kg/injection, schedule: Q01DX010 (sc), vehicle: steriod suspending solution 110 % of control | dose: 5.0 mg/kg/injection, schedule: Q01DX010 (sc), vehicle: steriod suspending solution 110 % of control | dose: 10.0 mg/kg/injection, schedule: Q01DX010 (sc), vehicle: steriod suspending solution 115 % of control

CC(C(=O)c1ccc(Cl)cc1)c1ccccc1 (stereo not drawn)
inactive: [11] 96 % of control | [12] 105 % of control | [13] 99 % of control

CCCCCCC(Cn1ccnc1)c1ccc(Br)cc1 (stereo not drawn)
inactive: [3] 100 % of control | [4] 91 % of control

COC(=O)CC(OC)c1nc(C(=O)OC)c(C)c(=O)[nH]1 (stereo not drawn)
inactive: dose: 4.0 mg/kg/injection, schedule: Q01DX009 (ip), vehicle: water 111 % of control | dose: 8.0 mg/kg/injection, schedule: Q01DX009 (ip), vehicle: water 101 % of control | dose: 16.0 mg/kg/injection, schedule: Q01DX009 (ip), vehicle: water 96 % of control | dose: 32.0 mg/kg/injection, schedule: Q01DX009 (ip), vehicle: water 99 % of control | dose: 64.0 mg/kg/injection, schedule: Q01DX009 (ip), vehicle: water 102 % of control | dose: 128.0 mg/kg/injection, schedule: Q01DX009 (ip), vehicle: water 105 % of control

CCCc1cccc2c3c([nH]c12)C(CC)(CC(=O)O)CCC3 (stereo not drawn)
inactive: dose: 12.5 mg/kg/injection, schedule: Q01DX009 (ip), vehicle: saline with Tween-80 97 % of control | [14] 106 % of control | [5] 98 % of control and 97 % of control

Fc1ccc(NC(=S)Nc2ccccc2C(F)(F)F)cc1
inactive: [15] 92 % of control | [16] 92 % of control | [17] 100 % of control

Nc1ncnc2c1ncn2CC(O)CBr (stereo not drawn)
inactive: [8] 101 % of control | [9] 104 % of control | [10] 93 % of control

CNC(=O)Oc1ccc2c(c1)[C@]1(C)CCN(C)O[C@@H]1N2C
inactive: dose: 0.79 mg/kg/injection, schedule: Q01DX005 (ip), vehicle: Klucel (hydroxypropylcellulose) (HPC) 100 % of control | dose: 1.56 mg/kg/injection, schedule: Q01DX005 (ip), vehicle: Klucel (hydroxypropylcellulose) (HPC) 100 % of control

O=C1OCC(C(=O)N2Cc3cc4ccccc4nc3C2)C1CO (stereo not drawn)
inactive: [6] 94 % of control | [7] 115 % of control | dose: 400.0 mg/kg/injection, schedule: Q01DX009 (ip), vehicle: saline with Tween-80 105 % of control

CCOC(=O)CS(=O)(=O)CCCCCCCCCCS(=O)(=O)CC(=O)OCC
inactive: [11] 102 % of control | [12] 99 % of control | [13] 89 % of control

O[C@@H]1c2sccc2C2NC21 (stereo partly drawn)
inactive: dose: 50.0 mg/kg/injection, schedule: Q01DX001 (ip), vehicle: saline 98 % of control | dose: 100.0 mg/kg/injection, schedule: Q01DX001 (ip), vehicle: saline 95 % of control | dose: 200.0 mg/kg/injection, schedule: Q01DX001 (ip), vehicle: saline 98 % of control

CC1(c2ccccc2)NC(=O)N(Sc2ccccc2)C1=O (stereo not drawn)
inactive: [8] 111 % of control | [9] 113 % of control | [10] 107 % of control

C[Si](Cl)(CCl)CCl
inactive: [5] 118 % of control | [6] 116 % of control | [7] 118 % of control

NCC[Se][Se]CCN
inactive: dose: 1.56 mg/kg/injection, schedule: Q01DX009 (ip), vehicle: saline 98 % of control | dose: 3.12 mg/kg/injection, schedule: Q01DX009 (ip), vehicle: saline 98 % of control | dose: 6.25 mg/kg/injection, schedule: Q01DX009 (ip), vehicle: saline 104 % of control

O=c1oc2nc3ccc(Cl)cc3c(=O)n2c2ccc(Cl)cc12
inactive: [15] 108 % of control | [16] 118 % of control | [17] 104 % of control

Nc1ccc(/C=C/c2ccnc3ccccc23)c(N)c1
inactive: dose: 1.25 mg/kg/injection, schedule: Q01DX001 (ip), vehicle: Klucel (hydroxypropylcellulose) (HPC) 107 % of control | dose: 2.5 mg/kg/injection, schedule: Q01DX001 (ip), vehicle: Klucel (hydroxypropylcellulose) (HPC) 108 % of control | dose: 5.0 mg/kg/injection, schedule: Q01DX001 (ip), vehicle: Klucel (hydroxypropylcellulose) (HPC) 114 % of control | dose: 10.0 mg/kg/injection, schedule: Q01DX001 (ip), vehicle: Klucel (hydroxypropylcellulose) (HPC) 107 % of control

CCOC(=O)C1=C(C#N)C(C(=O)OCC)c2ncccc21 (stereo not drawn)
inactive: dose: 25.0 mg/kg/injection, schedule: Q01DX009 (ip), vehicle: suspension in saline 93 % of control | dose: 50.0 mg/kg/injection, schedule: Q01DX009 (ip), vehicle: suspension in saline 93 % of control | dose: 100.0 mg/kg/injection, schedule: Q01DX009 (ip), vehicle: suspension in saline 100 % of control | dose: 200.0 mg/kg/injection, schedule: Q01DX009 (ip), vehicle: suspension in saline 92 % of control

N#CSCc1ccccc1Cl
inactive: [1] 104 % of control | [2] 104 % of control | dose: 10.0 mg/kg/injection, schedule: Q01DX009 (ip), vehicle: saline with Tween-80 90 % of control

O=C(CC(=O)C(F)(F)F)c1ccc(-c2ccccc2)cc1
inactive: [14] 110 % of control | [5] 116 % of control | [6] 111 % of control
